Measured values published in ChEMBL document CHEMBL3102729, “Synthesis, hypoglycemic activity and molecular modeling studies of pyrazole-3-carbohydrazides designed by a CoMFA model” (2013).

Assays:
[1] = system: Rattus norvegicus; assay: Hypoglycemic activity in STZ-nicotinamide Wistar rat model of diabetes at 50 mg/kg administered intragastrically as single dose measured after 7 hrs relative to control; assay type: functional; settings: route intragastric
[2] = system: Rattus norvegicus; assay: Hypoglycemic activity in STZ-nicotinamide Wistar rat model of diabetes at 50 mg/kg administered intragastrically as single dose; assay type: functional, organism-based; set-up: dose 50 mg/kg; settings: TDE = time-dependent effect

SMILES | Activity [1] [%] | Activity [2]
Cc1c(C(=O)NN2CCCCC2)nn(-c2ccnc3cc(Cl)ccc23)c1-c1ccc(Cl)cc1 | 34.2 | 
Cc1c(C(=O)NN2CCCCC2)nn(-c2ccc(F)c(Cl)c2)c1-c1ccc(F)cc1 | 58.7 | tde
Cc1c(C(=O)NN2CCCCC2)nn(-c2ccc(C(F)(F)F)cc2)c1-c1ccc(Br)cc1 | -2.4 | 
Cc1c(C(=O)NN2CCCCC2)nn(-c2ccc(C(F)(F)F)cc2)c1-c1ccc(Cl)cc1 | 27.3 | 
Cc1c(C(=O)NN2CCCCC2)nn(-c2ccc(F)c(Cl)c2)c1-c1ccc(Cl)cc1 | 33.6 | 
Cc1c(C(=O)NN2CCCCC2)nn(-c2ccccc2)c1-c1ccccc1 | 37.2 | 
COc1ccc(Cl)cc1C(=O)NCCc1ccc(S(=O)(=O)NC(=O)NC2CCCCC2)cc1 [GLYBURIDE] | 38 | 
Cc1c(C(=O)NN2CCCCC2)nn(-c2ccc(Cl)c(Cl)c2)c1-c1ccc(Cl)cc1 | 54.7 | tde
Cc1c(C(=O)NN2CCCCC2)nn(-c2ccnc3cc(Cl)ccc23)c1-c1ccc(F)cc1 | 22.4 | 
Cc1c(C(=O)NN2CCCCC2)nn(-c2ccc(Cl)cc2Cl)c1-c1ccc(C(F)(F)F)cc1 | 43.9 | 
Cc1c(C(=O)NN2CCCCC2)nn(-c2ccc(F)cc2F)c1-c1ccc(F)cc1 | 49.4 | tde
Cc1c(C(=O)NN2CCCCC2)nn(-c2ccc(Cl)cc2Cl)c1-c1ccccc1 | 1.08 | 
Cc1c(C(=O)NN2CCCCC2)nn(-c2ccc(Cl)cc2Cl)c1-c1ccc(Cl)cc1 [RIMONABANT] | 25.4 | 
Cc1c(C(=O)NN2CCCCC2)nn(-c2ccc(F)cc2F)c1-c1ccc(C(F)(F)F)cc1 | 54.2 | 
